# In patent US20180081270A1, “RADIATION-SENSITIVE COMPOSITION, AMORPHOUS FILM, AND METHOD FOR FORMING RESIST PATTERN” (Mitsubishi Gas Chemical Company, Inc., priority 2015, published 2018):
# Experiments:
# [1] = Solubility in PGME and PGMEA at 23° C.; format: physicochemical; settings: for solubility in PGME and PGMEA (dissolution amount): 1-methoxy-2-propanol (PGME) and propylene glycol monomethyl ether acetate (PGMEA)
# Protocol: The dissolution amount of the compound in 1-methoxy-2-propanol (PGME) and propylene glycol monomethyl ether acetate (PGMEA) was measured at 23° C., and the results were evaluated according to the following criteria.
# Evaluation A: 20% by mass or more Evaluation B: 10% by mass or more and less than 20% by mass Evaluation C: less than 10% by mass
# [2] = 10% thermal reduction temperature by thermogravimetry (TG); format: physicochemical; settings: 10° C./min to 500° C., nitrogen gas stream
# Protocol: “EXSTAR 6000 DSC apparatus” manufactured by SII NanoTechnology Inc. was used. About 5 mg of a sample was placed in an unsealed container made of aluminum, and the temperature was raised to 500° C. at a temperature increase rate of 10° C./min in a nitrogen gas (30 mL/min) stream. In this operation, 10% thermal reduction temperature was measured.
solubility in PGME and PGMEA (dissolution amount) [1] [% by mass],solubility in PGME and PGMEA (evaluation) [1],10% thermal reduction temperature [2] [°C],Structure (SMILES)
≥ 30,A (Evaluation A: 20% by mass or more),≥ 400,Oc1ccc(-c2ccc(O)c(C(c3ccc(I)cc3)c3cc(-c4ccc(O)cc4)ccc3O)c2)cc1 [BiF-I-1]
≥ 30,A (Evaluation A: 20% by mass or more),≥ 400,COc1cc(C(c2cc(-c3ccc(O)cc3)ccc2O)c2cc(-c3ccc(O)cc3)ccc2O)cc(O)c1I [BiF-I-2]
≥ 30,A (Evaluation A: 20% by mass or more),≥ 300,Oc1ccc(-c2ccc(O)c(C(c3cccc(I)c3)c3cc(-c4ccc(O)cc4)ccc3O)c2)cc1 [BiF-I-3]
